Drawing on US20250340565A1, “CD73 INHIBITOR COMPOUNDS” (AdoRx Therapeutics Limited, priority 2022, published 2025), this text covers IC50 for 21 molecules.

Assay [1] deals with CD73 activity in U138-MG cells (Homo sapiens (Human), UniProt P21589). Kind of assay: U138-MG inhibition assay (inorganic phosphate from AMP, PiColorLock Gold). Type of assay: cell-based. To be noted: 100 μM AMP, 30 min pre-incubation, 1 hour at 37° C. The method, boiled down: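 Washed U138-MG cells in HEPES-buffered saline (pH 7.4) preincubated 30 min at 37 °C with inhibitor, then given 100 μM AMP (final) for 1 h at 37 °C. Released phosphate in supernatant read by PiColorLock Gold; no-AMP wells define 100% inhibition. IC50 taken as inflection of sigmoidal curve.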

In another assay the target is CD73 in whole blood (Homo sapiens (Human), UniProt P21589). Kind of assay: Whole blood AMP Glo assay. Type of assay: cell-based. The conditions noted are these: whole blood of healthy volunteers, 10 μM AMP, 30 min pre-incubation, 15 min at 37° C., levamisole 1.5 mM. On the procedure: Blood is drawn from healthy volunteers by venepuncture and anti-coagulated with Lithium Heparin (10 IU/mi). 150 μl of blood is added to U-bottom polypropylene 96-well assay plates pre-filled with 20 μl of compound dilutions prepared in RPMI also containing the Tissue Non-specific Alkaline Phosphatase inhibitor Levamisole (final assay concentration 1.5 mM). Control wells to define uninhibited CD73 contain DMSO in place of compound. Control wells to define complete stabilization of AMP attributable to CD73 contain LY3475070 (CAS: 2375815-63-5) at 30 μM final assay concentration.
Compounds are pre-incubated with whole blood at 37° C. for 30 minutes. Following this, AMP is added in a 30 μl volume for a final assay concentration of 10 μM, mixed, and the plates are incubated for 15 minutes at 37° C. Final DMSO concentration/well is 0.6% and final volume/well is 200 μL. After incubating with AMP, the plates are placed on ice and then centrifuged at 2000 g for 10 minutes at 4° C. Plasma is removed and then diluted 1:10 with pre-chilled HBSS (Ca2+& Mg2+free) and kept on ice.
The stabilized AMP concentration in diluted plasma is measured using AMP-Glo kit (Promega), in parallel with a standard curve of known AMP concentrations, with a final volume of 40 μl in white flat bottom half-well 96-well plates (Corning). Signal is measured by Luminescence. The IC50 values of test compounds are determined as the inflection point of the sigmoidal concentration response curve.

For assay [2], the target named is human (h)CD73 (amino acids Trp27-Lys547) (Homo sapiens, UniProt P21589). Kind of assay: CD73 inhibition assay (Malachite Green phosphate detection). The conditions noted are these: 250 pM hCD73, 12.5 μM AMP, 20 min pre-incubation, absorbance 620 nm. Type of assay: biochemical. The method, boiled down:
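250 pM hCD73 (Trp27-Lys547) preincubated 20 min with compound (1% DMSO) in 25 mM Tris pH 7.5, 5 mM MgCl2, 0.002% Tween20. Reaction with 12.5 μM AMP for 20 min at room temperature; phosphate detected by malachite green at 620 nm. Data normalised to no compound (0%) and 10 μM control compound (100%).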

Structures are written as SMILES. Structures can show the parent of a compound that is named as a salt.

Sequence of CD73 in whole blood (P21589 27-574): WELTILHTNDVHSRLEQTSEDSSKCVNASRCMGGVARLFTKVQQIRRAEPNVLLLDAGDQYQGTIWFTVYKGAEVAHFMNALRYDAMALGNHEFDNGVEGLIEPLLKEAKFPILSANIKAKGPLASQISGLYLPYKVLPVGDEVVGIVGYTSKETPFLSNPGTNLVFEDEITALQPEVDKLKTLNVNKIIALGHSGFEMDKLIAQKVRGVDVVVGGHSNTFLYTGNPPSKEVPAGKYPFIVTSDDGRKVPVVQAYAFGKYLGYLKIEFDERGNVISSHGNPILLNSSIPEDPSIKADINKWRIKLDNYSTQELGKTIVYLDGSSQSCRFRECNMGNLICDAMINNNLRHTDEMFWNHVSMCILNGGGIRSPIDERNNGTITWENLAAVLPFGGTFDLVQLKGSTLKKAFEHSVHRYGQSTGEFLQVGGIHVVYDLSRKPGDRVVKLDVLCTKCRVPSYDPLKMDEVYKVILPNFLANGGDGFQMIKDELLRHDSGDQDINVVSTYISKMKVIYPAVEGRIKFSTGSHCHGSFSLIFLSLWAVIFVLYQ
Sequence of CD73 activity in U138-MG cells (P21589 27-574): as above

Turning to `O=c1[nH]cc(-n2cc3c(N4CC(F)(F)C5(CC5)C4)ncnc3n2)c(=O)[nH]1` [Example 13.1, 5-[4-(7,7-Difluoro-5-azaspiro[2.4]heptan-5-yl)pyrazolo[3,4-d]pyrimidin-2-yl]-1H-pyrimidine-2,4-dione], the IC50 (usually the concentration that inhibits the measured activity by half) in assay [1] was 2.4 nM; against CD73 in whole blood, 1.15 nM; in assay [2], 37.1 nM.

With `CC1(C)CN(c2ncnc3oc(-c4c[nH]c(=O)[nH]c4=O)cc23)CC1(F)F` [Example 7.1, 5-[4-(3,3-Difluoro-4,4-dimethyl-pyrrolidin-1-yl)furo[2,3-d]pyrimidin-6-yl]-1H-pyrimidine-2,4-dione], the IC50 worked out at 22.8 nM in assay [1], 444 nM on CD73 in whole blood and 25.4 nM in assay [2].

With `O=c1[nH]cc(-c2cc3c(N4CC(F)(F)C5(CCC5)C4)nccn3n2)c(=O)[nH]1` [Example 25.1, 5-[4-(8,8-Difluoro-6-azaspiro[3.4]octan-6-yl)pyrazolo[1,5-a]pyrazin-2-yl]-1H-pyrimidine-2,4-dione], the IC50 in assay [1] stood at 38.3 nM; against CD73 in whole blood, 645 nM; in assay [2], 42.3 nM.

As for `O=c1[nH]cc(-c2cc3ncnc(N4CCC(OCCN5CCCCC5)C4)c3s2)c(=O)[nH]1` (stereo not drawn) [Example 8, 5-[4-[3-[2-(1-Piperidyl)ethoxy]pyrrolidin-1-yl]thieno[3,2-d]pyrimidin-6-yl]-1H-pyrimidine-2,4-dione], the IC50 turned out to be 34.7 nM in assay [1], 50.7 nM at CD73 in whole blood and 20.1 nM in assay [2].

`O=c1[nH]cc(-c2cc3nccc(N4CCC(OCCN5CCCCC5)C4)c3s2)c(=O)[nH]1` (stereo not drawn) [Example 16, 5-[7-[3-[2-(1-Piperidyl)ethoxy]pyrrolidin-1-yl]thieno[3,2-b]pyridin-2-yl]-1H-pyrimidine-2,4-dione]: the IC50 was found to be 1340 nM in assay [1], 1550 nM at CD73 in whole blood and 297 nM in assay [2].

For the molecule `O=c1[nH]cc(-c2cc3c(N4CCC(OCCN5CCC(C(F)(F)F)CC5)C4)ncnc3o2)c(=O)[nH]1` (stereo not drawn) [Example 21, 5-[4-[3-[2-[4-(Trifluoromethyl)-1-piperidyl]ethoxy]pyrrolidine-1-yl]furo[2,3-d]pyrimidin-6-yl]-1H-pyrimidine-2,4-dione], the IC50 in assay [1] is 70.8 nM; on CD73 in whole blood it was 40.2 nM; in assay [2], 100 nM.

For the molecule `CC1(C)CN(c2ncc(Cl)n3nc(-c4c[nH]c(=O)[nH]c4=O)cc23)CC1(F)F` [Example 25.8, 5-[7-chloro-4-(3,3-difluoro-4,4-dimethyl-pyrrolidin-1-yl)pyrazolo[1,5-a]pyrazin-2-yl]-1H-pyrimidine-2,4-dione], the IC50 was 2.8 nM in assay [1], 38 nM at CD73 in whole blood and 16 nM in assay [2].

Turning to `CC1(C)CN(c2ncnc3nn(-c4c[nH]c(=O)[nH]c4=O)cc23)CC1(F)F` [Example 13, 5-[4-(3,3-Difluoro-4,4-dimethyl-pyrrolidin-1-yl)pyrazolo[3,4-d]pyrimidin-2-yl]-1H-pyrimidine-2,4-dione], the IC50 in assay [1] was 1.8 nM; at CD73 in whole blood, 0.47 nM; in assay [2] it was 44.8 nM.

Consider `O=c1[nH]cc(-n2cc3c(N4CC(F)(F)C5(CC5)C4)ncc(F)c3n2)c(=O)[nH]1` [Example 26.5, 5-[4-(7,7-difluoro-5-azaspiro[2.4]heptan-5-yl)-7-fluoro-pyrazolo[4,3-c]pyridin-2-yl]-1H-pyrimidine-2,4-dione], for which the IC50 in assay [1] came to 14 nM; on CD73 in whole blood, 254 nM; in assay [2], 46 nM.

Consider `O=c1[nH]cc(-c2cc3c(N4CCC(OCCN5CCC(F)(F)CC5)C4)ncnn3c2)c(=O)[nH]1` (stereo not drawn) [Example 10.1, 5-[4-[3-[2-(4,4-Difluoro-1-piperidyl)ethoxy]pyrrolidin-1-yl]pyrrolo[2,1-f][1,2,4]triazin-6-yl]-1H-pyrimidine-2,4-dione], for which the IC50 in assay [1] came to 61.1 nM; against CD73 in whole blood, 50.1 nM; in assay [2] it was 85.4 nM.

With `CC1(C)CN(c2ccnc3nn(-c4c[nH]c(=O)[nH]c4=O)cc23)CC1(F)F` [Example 30, 5-[4-(3,3-difluoro-4,4-dimethyl-pyrrolidin-1-yl)pyrazolo[3,4-b]pyridine-2-yl]-1H-pyrimidine-2,4-dione], the IC50 in assay [1] was 12 nM; against CD73 in whole blood, 20 nM; in assay [2], 115 nM.

Consider `O=c1[nH]cc(-n2cc3c(N4CC(F)(F)C5(CCC5)C4)ncc(Cl)c3n2)c(=O)[nH]1` [Example 28.2, 5-[7-chloro-4-(8,8-difluoro-6-azaspiro[3.4]octan-6-yl)pyrazolo[4,3-c]pyridin-2-yl]-1H-pyrimidine-2,4-dione], for which the IC50 in assay [1] was found to be 1.9 nM; on CD73 in whole blood it was 26 nM; in assay [2], 20 nM.

As to `O=C(OC1CN(c2ncnc3oc(-c4c[nH]c(=O)[nH]c4=O)cc23)CC1(F)F)N1CCOCC1` (stereo not drawn) [Example 22, [1-[6-(2,4-Dioxo-1H-pyrimidin-5-yl)furo[2,3-d]pyrimidin-4-yl]-4,4-difluoro-pyrrolidin-3-yl]morpholine-4-carboxylate], the IC50 in assay [1] worked out at 84.5 nM; against CD73 in whole blood, 65.5 nM; in assay [2] it was 136 nM.

For `CC1(C)CN(c2ncc(F)c3nn(-c4c[nH]c(=O)[nH]c4=O)cc23)CC1(F)F` [Example 26, 5-[4-(3,3-Difluoro-4,4-dimethyl-pyrrolidin-1-yl)-7-fluoro-pyrazolo[4,3-c]pyridin-2-yl]-1H-pyrimidine-2,4-dione], the IC50 was 2.9 nM in assay [1], 16 nM at CD73 in whole blood and 55.6 nM in assay [2].

For the molecule `O=c1[nH]cc(-c2cc3c(N4CCC(OCc5ccccn5)C4)ncnc3s2)c(=O)[nH]1` (stereo not drawn) [Example 4.1, 5-[4-[3-(2-pyridylmethoxy)pyrrolidine-1-yl]thieno[2,3-d]pyrimidin-6-yl]-1H-pyrimidine-2,4-dione formate salt], the IC50 in assay [1] is 428 nM; against CD73 in whole blood it was 782 nM; in assay [2] it was 96 nM.

For the molecule `N#Cc1ccc(OC2CCN(c3ncnc4sc(-c5c[nH]c(=O)[nH]c5=O)cc34)C2)nc1` (stereo not drawn) [Example 3, 6-[1-[6-(2,4-Dioxo-1H-pyrimidin-5-yl)thieno[2,3-d]pyrimidin-4-yl]pyrrolidin-3-yl]oxypyridine-3-carbonitrile], the values for the IC50 (in assay [1]; against CD73 in whole blood; in assay [2]) were 588 nM, 2220 nM and 59.6 nM, respectively.

For the molecule `N#Cc1ccc(OC2CCN(c3ncnc4nn(-c5c[nH]c(=O)[nH]c5=O)cc34)C2)nc1` (stereo not drawn) [Example 24, 6-[1-[2-(2,4-Dioxo-1H-pyrimidin-5-yl)pyrazolo[3,4-d]pyrimidin-4-yl]pyrrolidine-3-yl]oxypyridine-3-carbonitrile], the IC50 amounted to 11.8 nM in assay [1], 1.4 nM against CD73 in whole blood and 35.5 nM in assay [2].

Consider `O=c1[nH]cc(-c2cc3c(N4CCC(OCCN5CCCCC5)C4)ncnc3s2)c(=O)[nH]1` (stereo not drawn) [Example 2, 5-[4-[3-[2-(1-Piperidyl)ethoxy]pyrrolidin-1-yl]thieno[2,3-d]pyrimidin-6-yl]-1H-pyrimidine-2,4-dione], for which the IC50 in assay [1] was found to be 46.1 nM; at CD73 in whole blood, 47 nM; in assay [2] it was 11.1 nM.

For `Cc1nc(N2CC(C)(C)C(F)(F)C2)c2cn(-c3c[nH]c(=O)[nH]c3=O)nc2n1` [Example 23, 5-[4-(3,3-Difluoro-4,4-dimethyl-pyrrolidin-1-yl)-6-methyl-pyrazolo[3,4-d]pyrimidin-2-yl]-1H-pyrimidine-2,4-dione], the IC50 in assay [1] was determined as 10.5 nM; at CD73 in whole blood, 1.5 nM; in assay [2], 152 nM.

Regarding `O=c1[nH]cc(-n2cc3c(N4CC(F)(F)C5(CCCC5)C4)ncnc3n2)c(=O)[nH]1` [Example 13.3, 5-[4-(4,4-Difluoro-2-azaspiro[4.4]nonan-2-yl)pyrazolo[3,4-d]pyrimidin-2-yl]-1H-pyrimidine-2,4-dione], the values for the IC50 (in assay [1]; at CD73 in whole blood; in assay [2]) were 4.5 nM, 3.52 nM and 124 nM, respectively.

In the case of `CN1CCOC(COC2CN(c3ncnc4sc(-c5c[nH]c(=O)[nH]c5=O)cc34)CC2(F)F)C1` (stereo not drawn) [Example 4.3, 5-[4-[3,3-Difluoro-4-[(4-methylmorpholin-2-yl)methoxy]pyrrolidine-1-yl]thieno[2,3-d]pyrimidin-6-yl]-1H-pyrimidine-2,4-dione formate salt], the IC50 in assay [1] was 498 nM; against CD73 in whole blood, 516 nM; in assay [2], 269 nM.
